Test results: US10174078B2, “Keratan sulfate specific transporter molecules” (PHI PHARMA SA, priority 2014, dated 2019)
Square brackets hold non-standard residues; d marks the D form. Ends that are not written are not given here. Peptide text beside a SMILES is read from it. 3'AdT = not defined here

Legend:
[1] = estimation of in vivo stability: incubation of peptides with fetal calf serum; format: in vitro ADME; details: 37° C.; for degradation in fetal calf serum: 6 hr; for remaining at 6 h: fetal calf serum, read-out: stable at 6 hours
Procedure: In vivo stability was estimated by mixing peptides with fetal calf serum and incubating at 37° C. for 6 hr. Samples were tested at both 0 and 6 hours.

[2] = tested on: MDCK cells; assay: viability of MDCK cultures by trypan blue exclusion after 96 hour incubation with BAM-conjugate; format: cell-based; details: 0.5 μM to 10 μM tested
Procedure: The activity of peptides of the invention as targeting moieties was tested in vitro in preliminary studies using cells lines expressing KS. The nucleoside analog 3′ amino deoxythymidine (3′AdT) was conjugated to the amino-terminus of the peptide “RYRI” (RYKvRlK (SEQ ID NO:7)) using a single D-Glu residue (3′AdT-e-RYRI).
Confluent cultures of MDCK were passaged at 1/20 dilution and exponentionally growing cells were incubated for 96 hours with concentrations of the nucleoside analog conjugates ranging from 0.5 μM to 10 μM. Viability was subsequently assessed using trypan blue exclusion.

[3] = tested on: keratan-sulfate (KS); assay: modified ELISA: binding of peptides to plate-coated keratan-sulfate; details: plates coated with 1 mg/ml KS, 1 mg/ml peptide, 1 hour at room temperature
Procedure: The binding of the seven-mer peptides of the invention to KS as predicted by the models, in particular, as compared to the binding to other proteoglycans was tested using a modified ELISA protocol. ELISA plates were coated overnight with 1 mg/ml of heparin sulfate (HS), chondroitin-4-sulfate (C4S), chondroitin-6-sulfate (C6S) or keratan-sulfate (KS) in PBS. The wells were then washed with PBS and incubated for 1 hour at room temperature with 1 mg/ml of an exemplary peptide of the invention having the sequence RYKvRIK (“RYK-KS”; SEQ ID NO:7) or a standard TAT peptide. The plates were then thoroughly washed with PBS and subsequently photographed with a LUMASCOPE™ luminescent microscope. Images were then quantified using the ImageJ software (FIG. 4).
The same modified ELISA protocol was used to examine the impact of modifying the freely-selectable positions 2, 4 and 6 on the specific binding to KS.
The impact of sequence variation on specific binding was also investigated with select peptides using the above described modified ELISA.

Compound | degradation in fetal calf serum [1] | binding to KS [3] | other results
CC[C@H](C)[C@H](N)C(=O)N[C@@H](CCCNC(=N)N)C(=O)N[C@H](C(=O)N[C@H](CCCCN)C(=O)N[C@H](C(=O)N[C@H](CCCNC(=N)N)C(=O)N[C@H](C(=O)N[C@@H](CCCCN)C(=O)O)[C@@H](C)CC)[C@@H](C)CC)[C@@H](C)CC [IRIkIrIK] (HELM PEPTIDE1{I.R.I.[dK].I.[dR].I.K}$$$$V2.0; N-terminus and C-terminus assumed) | no degradation | – | remaining at 6 h [1]: 100%
CC[C@H](C)[C@H](NC(=O)[C@H](CCCNC(=N)N)NC(=O)[C@H](NC(=O)[C@H](CCCCN)NC(=O)[C@H](Cc1ccc(O)cc1)NC(=O)[C@@H](N)CCCNC(=N)N)C(C)C)C(=O)N[C@@H](CCCCN)C(=O)O [RYK-KS, RYKvRIK] (HELM PEPTIDE1{R.Y.K.[dV].R.I.K}$$$$V2.0; N-terminus and C-terminus assumed) | no degradation | – | remaining at 6 h [1]: 100%
D-linked conjugate: 3′AdT conjugated to the amino-terminus of the peptide RYRI (RYKvRIK) by a single D-Glu residue ({3'AdT}-[dE]RYK[dV]RIK; reading uncertain; also: printed as RYKvRIK) | – | – | concentrations with substantial effects on viability [2]: ≥ 0.5 µM
RKKRRQRR (Artificial TAT control peptide) [standard TAT peptide] | – | increases in binding that were likely non-selective | –
RPKHRPK [RPKHRPK] | completely degraded | – | –
RRRRRRRRR [pure arginine 9-mer] | – | increases in binding that were likely non-selective | –
RYKvFIKPRh (RYK[dV]FIKPR[dH]) | – | eliminated binding activity | –
RYKvRPKYF (RYK[dV]RPKYF) [control peptide with proline at position 6] | – | eliminated binding activity | –
